From US7964631B2, “Fused tricyclic compounds as inhibitors of tumor necrosis factor-α” (Piramal Life Sciences Limited, priority 2004, dated 2011)
Where a name gives a salt, the structure may show the parent alone.

Assays:
TNF-α [1] = experiment: Whole blood cell culture assay: LPS-induced TNF-α release (primary screening); assay type: cell-based, human; conditions: Homo sapiens, Whole blood cell; test compound 1 μM; diluted whole blood of healthy donors; LPS 1 μg/ml, 4.5 h; vs DMSO control
Procedure: TNF-α production by lipopolysaccharide (LPS) in whole blood was measured according to the method described by Wilson et al (J. Immunol. Methods, 139: 233-240, 1991). Briefly, blood was collected from healthy donors into potassium EDTA vacutainer tubes (Vacutest Plast/Becton Dickinson) and diluted with RPMI 1640 culture medium (Gibco BRL, Pasley, UK) containing 100 U/ml penicillin and 100 μg/ml streptomycin, (100× solution, Sigma Chemical Co. St Louis, Mo.) with no added serum. The white blood cell count was adjusted to 1×10^6 cells/ml and 100 μl/well of the diluted blood was transferred into 96-well culture plates. Following cell plating, 79 μl of culture medium and 1 μl of the test compounds (final concentration 1 μM) dissolved in DMSO (dimethylsulfoxide, Sigma, Mo., USA) was added to the cells. The final concentration of DMSO was adjusted to 0.5%. 1 μl of vehicle (0.5% DMSO) was used as control. Rolipram (100 μM) was used as a standard compound. The plates were incubated for 30 min at 37° C. in an atmosphere of 5% CO2. Finally, 20 μl (10 μg/ml) per well of LPS (Escherchia coli 0127:B8, Sigma Chemical Co., St. Louis, Mo.) was added, for a final concentration of 1 μg/ml. Plates were incubated at 37° C. for 4.5 h in an atmosphere of 5% CO2. Supernatants were harvested and assayed for TNF-α by ELISA as described by the manufacturer (R&D Systems, MN) or by cytotoxicity bioassay in L929 cells. Percent inhibition of TNF-α release in comparison to the control was calculated.

[2] = test system: peripheral blood mononuclear cells (PBMC); experiment: Cytotoxicity of test compounds in PBMC, cell viability by MTS reagent; assay type: cell-based, human
Procedure: (§1) TNF-α production by LPS in peripheral blood mononuclear cells (PBMC) was measured according to the method described by Henry et al (J. Bioorg. Med. Chem. Lett., 8: 3335-3340, 1998). Briefly, blood was collected from healthy donors into Potassium EDTA vacutainer tubes (Vacutest Plast/Becton Dickinson). PBMC were isolated using gradient centrifugation in Ficoll-Paque solution (Pharmacia). Isolated PBMC were suspended in RPMI 1640 culture medium (Gibco BRL, Pasley, UK) containing 10% fetal bovine serum (FBS) (Hyclone, Utah, USA), 100 U/ml penicillin (Sigma Chemical Co. St Louis, Mo.) and 100 μg/ml streptomycin (Sigma Chemical Co. St Louis, Mo.). The cell concentration was adjusted to 1×10^6 cells/ml. The viability as determined by trypan blue dye exclusion was uniformly ≧98%. The cell suspension (100 μl) was added to the wells of a 96-well culture plate. Following cell plating, 79 μl of the culture medium and 1 μl of eight different concentrations of the test compounds (final concentration 0.03, 0.1, 0.3, 1, 3, 10, 30, 100 μM) dissolved in DMSO (dimethylsulfoxide, Sigma, Mo., USA) were added to the cells. The final concentration of DMSO was adjusted to 0.5%. The appropriate DMSO concentration was used as control. Rolipram (30 μM) was used as a standard compound. The plates were incubated for 30 min at 37° C. in an atmosphere of 5% CO2. Finally, 20 μl (10 μg/ml) per well of LPS, (Escherchia coli 0127:B8, Sigma Chemical Co., St. Louis, Mo.) was added, for a final concentration of 1 μg/ml. The plates were incubated at 37° C. for 4.5 h in an atmosphere of 5% CO2. To determine the cytotoxicity of the test compounds, the cell viability was assessed using MTS (3-(4,5-dimethylthiazol-2-yl)-5-(3-carboxymethoxyphenyl)-2-(4-sulfonyl)-2H-tetrazolium) reagent (Promega) after 4.5 h of incubation. Supernatants were harvested and assayed for TNF-α by ELISA as described by the manufacturer (R&D Systems, MN, BD Biosciences Pharmingen) or by cytotoxicity bioassay in L929 cells. The 50% inhibitory concentration (IC50) values were calculated by a nonlinear regression method using GraphPad software (Prism 3.03)

TNF-α [3] = experiment: LPS-induced TNF-α release in BALB/c mice; assay type: in vivo; conditions: Mus musculus, LPS 1 mg/kg i.p. 1 h after dosing, plasma TNF-α 1.5 h after LPS, read-out: % inhibition (Mean ± SE*); for inhibition in vivo at 100 mg/kg: 100 mg/kg po; for inhibition in vivo at 30 mg/kg: 30 mg/kg po
Procedure: The protocol described by Fukuda T. et al (Eur. J. Pharmacol., 391: 317-320, 2000) was followed. BALB/c mice were divided into groups of five to ten each. The test compound, suspended in Tween 80-0.5% carboxy methylcellulose (CMC), with a few drops of Tween 80 as wetting agent if necessary, was administered orally (p.o.) to the mice. One hour later, LPS dissolved in sterile, pyrogen-free saline was administered i.p. at the dose of 1 mg/kg. The negative control group received saline as an i.p injection, while all other groups received LPS. Rolipram (30 mg/kg) was used as the standard drug. One and a half hours later, blood was collected in heparin. Plasma was separated by centrifugation at 13000 rpm (Heraeus Biofuge Pico Centrifuge) at room temperature, aliquoted and stored at −70° C. until analysis.
TNF-α levels in the blood samples were assayed using ELISA and % inhibition of TNF-α release compared to the control group was calculated.

TNF-α [4] = experiment: LPS-induced TNF-α production in peripheral blood mononuclear cells (secondary screening); assay type: cell-based; conditions: 4.5 h, TNF-α production in PBMC, LPS 1 μg/ml, ELISA or L929 bioassay
Procedure: as §1

Compound | IC50 (TNF-α [4]) [nM] | melting point | inhibition at 1 µM (TNF-α [1]) [%] | % toxicity (10 μM), 5 h [2] [%] | inhibition in vivo at 100 mg/kg (TNF-α [3]) [%] | inhibition in vivo at 30 mg/kg (TNF-α [3]) [%] | inhibition in vivo at 10 mg/kg (TNF-α [3]; 10 mg/kg po) [%]
Cc1cc(C(=O)O)cc2c1Oc1c(Cl)cc(N3CCNCC3)cc1CS2(=O)=O [Example 18, 4-Chloro-6-methyl-10,10-dioxo-2-piperazin-1-yl-10,11-dihydro-5-oxa-10lambda*6*-thia-dibenzo[a,d]cycloheptene-8-carboxylic acid] | – | – | – | – | 22.7 ± 8.47 | – | –
Cc1cc(C(=O)O)cc2c1Oc1c(Cl)cc(N)cc1CS2(=O)=O [Example 3, 2-Amino-4-chloro-6-methyl-10,10-dioxo-10,11-dihydro-5-oxa-10lambda*6*-thia-dibenzo[a,d]cycloheptene-8-carboxylic acid sodium salt] | – | – | – | – | 40.7 ± 12.7 | – | –
COC(=O)c1cc(C)c2c(c1)S(=O)(=O)Cc1cc(N3CCN(CCO)CC3)cc(Cl)c1O2 [Example 22, 4-Chloro-2-[4-(2-hydroxy-ethyl)-piperazin-1-yl]-6-methyl-10,10-dioxo-10,11-dihydro-5-oxa-10lambda*6*-thia-dibenzo[a,d]cycloheptene-8-carboxylic acid methyl ester] | 880 | – | – | 16 | 57.7 ± 5.66 | – | –
COC(=O)c1cc(C)c2c(c1)S(=O)(=O)Cc1cc(N3CCN(C=O)CC3)cc(Cl)c1O2 [Example 20, 4-Chloro-2-(4-formyl-piperazin-1-yl)-6-methyl-10,10-dioxo-10,11-dihydro-5-oxa-10lambda*6*-thia-dibenzo[a,d]cycloheptene-8-carboxylic acid methyl ester] | 1100 | – | – | 24 | – | 27.9 ± 17.5 | –
Cc1cc(C(=O)OC(C)C)cc2c1Oc1c(Cl)cc(NC=O)cc1CS2(=O)=O [Example 11, 4-Chloro-2-formylamino-6-methyl-10,10-dioxo-10,11-dihydro-5-oxa-10lambda*6*-thia-dibenzo[a,d]cycloheptene-8-carboxylic acid isopropyl ester] | 21000 | 212 to 215 °C | 51 | 25 | 77.9 ± 9.85 | – | –
Cc1cc(C(=O)O)cc2c1Oc1c(Cl)cc(NC=O)cc1CS2(=O)=O [Example 7, 4-Chloro-2-formylamino-6-methyl-10,10-dioxo-10,11-dihydro-5-oxa-10lambda*6*-thia-dibenzo[a,d]cycloheptene-8-carboxylic acid] | – | – | – | – | 55.8 ± 9.24 | – | –

The next lines start with results.

IC50 (TNF-α [4]) [nM] | melting point | Compound | inhibition at 1 µM (TNF-α [1]) [%] | % toxicity (10 μM), 5 h [2] [%] | inhibition in vivo at 100 mg/kg (TNF-α [3]) [%] | inhibition in vivo at 30 mg/kg (TNF-α [3]) [%] | inhibition in vivo at 10 mg/kg (TNF-α [3]; 10 mg/kg po) [%]
180 | 277 to 280 °C | COC(=O)c1cc(C)c2c(c1)S(=O)(=O)Cc1cc(N3CCNCC3)cc(Cl)c1O2.Cl [Example 16, 4-Chloro-6-methyl-10,10-dioxo-2-piperazin-1-yl-10,11-dihydro-5-oxa-10lambda*6*-thia-dibenzo[a,d]-cycloheptene-8-carboxylic acid methyl ester hydrochloride] | 41 | 62 | 72.2 ± 3.17 | – | –
4000 | – | COC(=O)c1cc(C)c2c(c1)S(=O)(=O)Cc1cc(N3CCN(C(C)=O)CC3)cc(Cl)c1O2 [Example 21, 2-(4-Acetyl-piperazin-1-yl)-4-chloro-6-methyl-10,10-dioxo-10,11-dihydro-5-oxa-10lambda*6*-thia-dibenzo[a,d]cycloheptene-8-carboxylic acid methyl ester] | – | 44 | – | 54.6 ± 11.7 | –
160 | 235 to 237 °C | COC(=O)c1cc(C)c2c(c1)S(=O)(=O)Cc1ccc(N3CCNCC3)c(Cl)c1O2.Cl [Example 32, 4-Chloro-6-methyl-10,10-dioxo-3-piperazin-1-yl-10,11-dihydro-5-oxa-10lambda*6*-thia-dibenzo[a,d]cycloheptene-8-carboxylic acid methyl ester hydrochloride] | 96 | 27 | – | – | –
10500 | 262 to 264 °C | Cc1cc(C(=O)OC(C)C)cc2c1Oc1c(Cl)cc(N3CCNCC3)cc1CS2(=O)=O.Cl [Example 28, 4-Chloro-6-methyl-10,10-dioxo-2-piperazin-1-yl-10,11-dihydro-5-oxa-10lambda*6*-thia-dibenzo[a,d]cycloheptene-8-carboxylic acid isopropyl ester hydrochloride] | 70 | 15 | – | – | –
3870 ± 1420 | 201 to 204 °C | COC(=O)c1cc(C)c2c(c1)S(=O)(=O)Cc1cc(N3CCN(C(=O)c4ccccc4C)CC3)cc(Cl)c1O2 [Example 24, 4-Chloro-6-methyl-2-[4-(2-methyl-benzoyl)-piperazin-1-yl]-10,10-dioxo-10,11-dihydro-5-oxa-10lambda*6*-thia-dibenzo[a,d]cycloheptene-8-carboxylic acid methyl ester] | 74 | 03 | – | 17.6 ± 8.72 | –
8600 | 258 to 260 °C | COC(=O)c1cc(C)c2c(c1)S(=O)(=O)Cc1cc(N)cc(Cl)c1O2 [Example 1, 2-Amino-4-chloro-6-methyl-10,10-dioxo-10,11-dihydro-5-oxa-10lambda*6*-thia-dibenzo[a,d]cycloheptene-8-carboxylic acid methyl ester] | – | 12 | – | – | 64.9 ± 3.97
600 | – | COC(=O)c1cc(C)c2c(c1)S(=O)(=O)Cc1cc(N3CCN(S(C)(=O)=O)CC3)cc(Cl)c1O2 [Example 25, 4-Chloro-2-(4-methanesulfonyl-piperazin-1-yl)-6-methyl-10,10-dioxo-10,11-dihydro-5-oxa-10lambda*6*-thia-dibenzo[a,d]cycloheptene-8-carboxylic acid methyl ester] | – | 18 | – | 33.6 ± 16.5 | –
200 | 280 °C (dec.) | COC(=O)Cc1cc(C)c2c(c1)S(=O)(=O)Cc1cc(N3CCNCC3)cc(Cl)c1O2.Cl [Example 33, (4-Chloro-6-methyl-10,10-dioxo-2-piperazine-1-yl-10,11-dihydro-5-oxa-10lambda*6*-thia-dibenzo[a,d]cyclohepten-8-yl)-acetic acid methyl ester hydrochloride] | 95 | 29 | – | – | –
